pIC50: −log10 of the molar value. Positions of bridges follow the written chain, without caps; N, C: chain ends. Non-standard residues stand in square brackets, D forms with d. Residues, ends and D or L forms follow the SMILES beside them. *: point of attachment. Me3N+(CH2)2O(CH2)2O(CH2)2CO = C[N+](C)(C)CCOCCOCCC(=O)*; Trp(7-Me) = Cc1cccc2c(C[C@H](N)C(=O)O)c[nH]c12; CH2CH2OCH2CH2NMe3+ = C[N+](C)(C)CCOCC*; 2Nal = N[C@@H](Cc1ccc2ccccc2c1)C(=O)O; 3Pal = N[C@@H](Cc1cccnc1)C(=O)O; Lys(Me) = CNCCCC[C@H](N)C(=O)O; Pen = CC(C)(S)[C@H](N)C(=O)O; X37 = C[N+]1(C)CCN(CC*)CC1; X57 = C[N+]1(C)CCC(CC*)CC1; Thp = NC1(C(=O)O)CCOCC1; X17 = C[N+]1(CC*)CCOCC1; Sar = CNCC(=O)O
Experiments:
[1] = Exposed Polar Surface Area (EPSA); type: physicochemical; conditions: SFC on Chirex 3014 column; sample 1 mM DMSO stock; read-out: EPSA
How it was run: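 SFC retention on a Chirex 3014 (S-valine/(R)-1-(α-naphthyl)ethylamine) column at 35 °C, 4 mL/min, 14 MPa outlet, 5–60% methanol/20 mM ammonium formate gradient in CO2. Retention times converted to EPSA (Å²) via linear calibration with 8 standards; samples from 1 mM DMSO stock, run in duplicate.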

[2] = target: T1, IL-23R (Homo sapiens, UniProt Q5VWK5); test: IL23R Reporter Assay; type: cell-based; conditions: HEK293 cells containing IL-23R, IL-12RP1 and STAT-inducible firefly luciferase reporter; 10 ng/mL IL-23 (EC90); 5 h at 37° C.; read-out: IL23R Reporter Assay
T1 construct: host or cells: HEK293
T1 sequence (Q5VWK5 24-629): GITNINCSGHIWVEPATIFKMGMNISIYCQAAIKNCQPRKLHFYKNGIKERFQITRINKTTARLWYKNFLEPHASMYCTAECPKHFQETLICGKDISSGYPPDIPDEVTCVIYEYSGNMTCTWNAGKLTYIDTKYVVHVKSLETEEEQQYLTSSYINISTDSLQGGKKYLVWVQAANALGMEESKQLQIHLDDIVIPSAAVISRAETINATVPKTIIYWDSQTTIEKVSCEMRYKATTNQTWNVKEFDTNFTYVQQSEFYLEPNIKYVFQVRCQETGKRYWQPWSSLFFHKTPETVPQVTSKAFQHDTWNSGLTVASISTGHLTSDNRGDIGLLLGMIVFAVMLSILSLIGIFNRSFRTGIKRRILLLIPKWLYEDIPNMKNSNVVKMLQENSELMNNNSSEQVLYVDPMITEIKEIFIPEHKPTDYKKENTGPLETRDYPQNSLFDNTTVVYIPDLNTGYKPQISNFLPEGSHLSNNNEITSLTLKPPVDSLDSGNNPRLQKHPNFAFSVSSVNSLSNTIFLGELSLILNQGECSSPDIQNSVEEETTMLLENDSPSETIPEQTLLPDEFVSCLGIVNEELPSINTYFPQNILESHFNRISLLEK

Row | SMILES | EPSA [1] | pIC50 [2]
1 | CC(=O)N(C)CCCC[C@@H]1NC(=O)[C@H](Cc2c[nH]c3c(C)cccc23)NC(=O)[C@H]([C@@H](C)O)NC(=O)[C@H](CC(=O)N(C)C)NC(=O)[C@@H](NC(=O)CCOCCOCC[N+](C)(C)C)C(C)(C)SSC(C)(C)[C@@H](C(=O)N[C@@H](Cc2ccc(OCCC3CC[N+](C)(C)CC3)cc2)C(=O)N[C@@H](Cc2ccc3ccccc3c2)C(=O)NC2(C(=O)N[C@@H](CCCCN(C)C(C)=O)C(=O)N[C@@H](CC(N)=O)C(=O)N[C@@H](Cc3cccnc3)C(=O)N(C)CC(=O)N(C)C)CCOCC2)NC1=O [compound 187, cPEG3aCO-Pen(3)-N(N(Me)2)-T-7MeW-K(NMeAc)-Pen(3)-4DMPEF-2Nal-THP-K(NMeAc)-N-3Pya-Sar-CON(Me)2] ({Me3N+(CH2)2O(CH2)2O(CH2)2CO}-[Pen]D(NMe2)T[Trp(7-Me)][Lys(Me)](Ac)[Pen]Y(X57)[2Nal][Thp][Lys(Me)](Ac)N[3Pal][Sar]-NMe2; disulfide 1-6) | 137 A^2 | 7.07
2 | CC(=O)N(C)CCCC[C@@H]1NC(=O)[C@H](Cc2c[nH]c3c(C)cccc23)NC(=O)[C@H]([C@@H](C)O)NC(=O)[C@H](CC(=O)N(C)C)NC(=O)[C@@H](NC(=O)CCOCCOCC[N+](C)(C)C)C(C)(C)SSC(C)(C)[C@@H](C(=O)N[C@@H](Cc2ccc(OCCN3CC[N+](C)(C)CC3)cc2)C(=O)N[C@@H](Cc2ccc3ccccc3c2)C(=O)NC2(C(=O)N[C@@H](CCCCN(C)C(C)=O)C(=O)N[C@@H](CC(N)=O)C(=O)N[C@@H](Cc3cccnc3)C(=O)N(C)CC(=O)N(C)C)CCOCC2)NC1=O [compound 193, cPEG3aCO-Pen(3)-N(N(Me)2)-T-7MeW-K(NMeAc)-Pen(3)-4DMPzEF-2Nal-THP-K(NMeAc)-N-3Pya-Sar-CON(Me)2] ({Me3N+(CH2)2O(CH2)2O(CH2)2CO}-[Pen]D(NMe2)T[Trp(7-Me)][Lys(Me)](Ac)[Pen]Y(X37)[2Nal][Thp][Lys(Me)](Ac)N[3Pal][Sar]-NMe2; disulfide 1-6) | 135 A^2 | 7.40
3 | CC(=O)N(C)CCCC[C@@H]1NC(=O)[C@H](Cc2c[nH]c3c(C)cccc23)NC(=O)[C@H]([C@@H](C)O)NC(=O)[C@H](CC(=O)N(C)C)NC(=O)[C@@H](NC(=O)CCOCCOCC[N+](C)(C)C)C(C)(C)SSC(C)(C)[C@@H](C(=O)N[C@@H](Cc2ccc(OCC[N+]3(C)CCOCC3)cc2)C(=O)N[C@@H](Cc2ccc3ccccc3c2)C(=O)NC2(C(=O)N[C@@H](CCCCN(C)C(C)=O)C(=O)N[C@@H](CC(N)=O)C(=O)N[C@@H](Cc3cccnc3)C(=O)N(C)CC(=O)N(C)C)CCOCC2)NC1=O [compound 198, cPEG3aCO-Pen(3)-N(N(Me)2)-T-7MeW-K(NMeac)-Pen(3)-MMoEF-2Nal-THP-K(NMeAc)-N-3Pya-Sar-CON(Me)2] ({Me3N+(CH2)2O(CH2)2O(CH2)2CO}-[Pen]D(NMe2)T[Trp(7-Me)][Lys(Me)](Ac)[Pen]Y(X17)[2Nal][Thp][Lys(Me)](Ac)N[3Pal][Sar]-NMe2; disulfide 1-6) | 144 A^2 | 8.51
4 | CC(=O)N(C)CCCC[C@@H]1NC(=O)[C@H](Cc2c[nH]c3c(C)cccc23)NC(=O)[C@H]([C@@H](C)O)NC(=O)[C@H](CC(=O)N(C)C)NC(=O)[C@@H](NC(=O)CCOCCOCC[N+](C)(C)C)C(C)(C)SSC(C)(C)[C@@H](C(=O)N[C@@H](Cc2ccc(OCCOCC[N+](C)(C)C)cc2)C(=O)N[C@@H](Cc2ccc3ccccc3c2)C(=O)NC2(C(=O)N[C@@H](CCCCN(C)C(C)=O)C(=O)N[C@@H](CC(N)=O)C(=O)N[C@@H](Cc3cccnc3)C(=O)N(C)CC(=O)N(C)C)CCOCC2)NC1=O [compound 199, cPEG3aCO-Pen(3)-N(N(Me)2)-T-7MeW-K(NMeAc)-Pen(3)-APEG2F-2Nal-THP-K(NMeAc)-N-3Pya-Sar-CON(Me)2] ({Me3N+(CH2)2O(CH2)2O(CH2)2CO}-[Pen]D(NMe2)T[Trp(7-Me)][Lys(Me)](Ac)[Pen]Y(CH2CH2OCH2CH2NMe3+)[2Nal][Thp][Lys(Me)](Ac)N[3Pal][Sar]-NMe2; disulfide 1-6) | 141 A^2 | 8.52
